The values below come from patent publication US20260101915A1, “APIGENIN GLYCOSIDES FLAVOR ENHANCERS” (priority 2019, published 2026).

The subject of experiment [1] is pinellic acid formation. In words: Pinellic acid concentration in whole wheat bread (LC/MS/MS). The method, then: (§1) The concentration of pinellic acid was analyzed for both control and treatment dough samples using the following method: The 15 mg of dough (or 27 mg of bread) was extracted with 1 mL 1:1 IPA/H2O (v/v) spiked with prostaglandin-F2α ([…]) ISTD. Samples were sonicated for 10 min followed by shaking using the GenoGrinder at 1000 rpm for 10 min. Samples were then diluted 1:50 and sample clean-up was carried out using a 96-well Oasis PRIME HLB plate (1 cc, 30 mg sorbent). After sample load (250 μL) and wash (750 μL, 10% acetonitrile (aq.) with 0.1% formic acid) steps, the retentate was eluted with 500 μL 90% acetonitrile (aq.) with 0.1% formic acid. Samples were further diluted to 2 mL using water with 0.1% formic acid. The standard calibration curve was prepared using 6-points ranging from 0.24 ng/ml to 500 ng/mL.
Quantitative analysis was conducted using MRM acquisition. LC/MS/MS analysis was conducted using a Waters ACQUITY H-class UPLC system coupled with a Xevo TQ-S mass spectrometer (Waters Co.). […]
Wheat breads were made using a modified AACC straight-dough bread-making method (AACC, 1999). […] The concentration of pinellic acid was analyzed for both control and spiking whole wheat bread samples as described for the dough analysis. […]

The test system of experiment [2] is pinellic acid formation. In words: Pinellic acid concentration in HRW Everest flour dough (LC/MS/MS). The note with it: treatment dough (946.5 ng Schaftoside in 12 μL water per 15 mg HRW Everest flour) vs control; pvalue <0.05. Here is the method:
For the dough analysis 15 mg of Hard Red Winter (“HRW”) Everest flour was weighed into 2 Eppendorf tubes containing one ¼ inch stainless steel balls, followed by the addition of 12 μL of water (4:5 water/flour ratio) to make a control dough sample. The treatment dough sample was similarly prepared to the control sample with the exception that 946.5 ng of Schaftoside in 12 μL of water (4:5 water/flour ratio) was added instead of pure water.
as §1
Quantitative analysis was conducted using MRM acquisition. […]

Experiment [3] can be described thus: Paired sensory difference test of whole wheat bread bitterness (20 panelists). The experiment is classed as in vivo. The note with it: paired comparison, 20 participants, nose clips, bread crumb chewed 10 seconds; Pvalue <0.05. The text has this:
Twenty participants were recruited by Flavor Research and Education Center (FREC) at The Ohio State University. The whole wheat bread samples (control and treatment) were cut into 3 cm×2 cm×1 cm (L×W×H) squares of crumb the day before the test and stored at room temperature in sealed 2 oz cups labeled with a 3-digit codes. Each panelist evaluated one pair of samples containing the control sample and the treatment sample. Panelists used nose clips during the evaluation in order to prevent interactions with olfactory responses. Panelists were instructed to place the entire piece of bread crumb in their mouth, chew for 10 seconds, and evaluate the maximum bitter intensity perceived. After evaluating each sample in the pair, panelists were asked to choose the most bitter sample. The serving order of each bread sample was balanced. Water was used as a palate cleanser.
Compusense Cloud Software version 7.2 (Compusense, Guelph, Canada) was used for data collection. Approval of the sensory evaluation protocol was granted by the Ethics Committee, The Ohio State University (IRB #2019B0402). Paired Student t-tests was executed with SPSS Statistics Version 25 (International Business Machines Corp., Armonk, NY).

As to `O=c1cc(-c2ccc(O)cc2)oc2c([C@@H]3OC[C@H](O)[C@H](O)[C@H]3O)c(O)c([C@@H]3O[C@H](CO)[C@@H](O)[C@H](O)[C@H]3O)c(O)c12` [Schaftoside, schaftoside], in the experiment on pinellic acid formation [1] (schaftoside raised from 88.4 to 151.5 mg/kg (68.1 mg/kg flour added) prior to bread making, control bread 308.64 mg/kg, pvalue <0.05), the “pinellic acid concentration in treatment bread” value was determined as 228.6 mg/kg. The “reduction in pinellic acid formation” value in the experiment on pinellic acid formation [1] (treatment vs control, schaftoside added to flour prior to bread making) came out at 26%. In the experiment on pinellic acid formation [2], the “reduction in pinellic acid content” value amounted to 30%. Further, the “perceived bitterness of treatment bread vs control bread” value in experiment [3] is “significantly less bitter”.
